In assay [1] the target is T1, TSPO (Homo sapiens, UniProt P30536). In words: Competition binding assay with [3H]PK11195 and unlabelled vinpocetine in human brain membranes. On the set-up: Ki MAB; Vinpocetine Ki, MAB. As to conditions: A/T subjects, mixed affinity binder, human brain, mean (SEM), read-out: Vinpocetine Ki, MAB. Here is the method: (§1) Tissue was obtained from the UK Multiple Sclerosis (MS) Tissue Bank at Imperial College. All tissue blocks obtained included only “normal appearing” tissue, without immunohistochemical evidence of demyelination or significant inflammatory infiltrate. The tissue was stored at −80° C. until use. Tissue blocks from 15 donors (5 each from HAB, MAB and LAB donors) were used. The binding affinity classification for each tissue block had been established previously using PBR28 (Owen et al. 2010).
T1 sequence (P30536 whole entry): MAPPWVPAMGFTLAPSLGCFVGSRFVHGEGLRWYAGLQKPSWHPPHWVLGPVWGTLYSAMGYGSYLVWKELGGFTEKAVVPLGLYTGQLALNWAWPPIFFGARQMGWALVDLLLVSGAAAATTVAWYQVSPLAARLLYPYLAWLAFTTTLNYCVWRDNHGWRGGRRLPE
(§2) Tissue blocks were homogenised in 10 times weight for volume (w/v) buffer ([…], 5 mM Tris base, 1 mM MgCl2, pH 7.4, 4° C.). […]
(§3) Following incubation, assays were terminated via filtration through Whatman GF/B filters, followed by 3×1 ml washes with ice-cold wash buffer (50 mM Tris Base, 1.4 mM MgCl2, pH 7.4, 4° C.). […] Scintillation fluid (4 ml/vial, Perkin Elmer Ultima Gold MV) was added and vials counted on a Perkin Elmer Tricarb 2900 liquid scintillation counter. […] Ki (nM) values were determined using GraphPad Prism 5.0 software (GraphPad Software Inc, USA).
(§4) Protein concentrations (μg protein/ml) were determined using the Bicinchoninic acid assay (BCA Kit, Sigma-Aldrich, UK) and absorption read at 562 nm.
(§5) Data were analysed using the iterative non-linear regression curve fitting software supplied with GraphPad Prism 5.0. […] Data are expressed as the mean (standard error of the mean). […]

Assay [2] has as its target T1, TSPO. As to conditions: high affinity interaction (<100 nM) excluded; not formally measured; cited from earlier work.
In assay [3] the test system is sodium channels, calcium channels, phosphodiesterases or NF-κB. To be noted: cited from earlier work.
Assay [4] addresses TSPO. In words: Competition binding assay with [3H]PK11195 and unlabelled vinpocetine in human brain membranes. To be noted: average of HAB and LAB means; read-out: mean Ki value of HABs and LABs. How it is done:
as §1, §2, §3, §4, §5

For assay [5], the target named is T2, TSPO (Rattus norvegicus, UniProt P16257).
T2 construct: 200 nM in the rat heart (Gulyas et al. 2005); host or cells: rat heart
To be noted: rat heart; cited from earlier work.

Assay [6] deals with TSPO (Homo sapiens, UniProt P30536, T147A). Briefly: Competition binding assay with [3H]PK11195 and unlabelled vinpocetine in human brain membranes. On the set-up: from tissue; host or cells: human brain (membrane preparation, by the cited method). To be noted: A/A subjects, high affinity binder, human brain, mean (SEM); read-out: Vinpocetine Ki, HAB. How it is done: as §1, §2, §3, §4, §5
Chain of TSPO (Homo sapiens, UniProt P30536, T147A) (P30536 2-169 T147A): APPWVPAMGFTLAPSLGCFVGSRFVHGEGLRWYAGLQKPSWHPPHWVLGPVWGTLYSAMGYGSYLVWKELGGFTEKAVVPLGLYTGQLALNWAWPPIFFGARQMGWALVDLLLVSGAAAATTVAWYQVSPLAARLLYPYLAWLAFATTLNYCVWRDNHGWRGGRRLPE

The structures appear in SMILES notation. Read-outs that look alike come from different tables or passages of the source.

For orientation: Ki means the equilibrium dissociation constant of an inhibitor or competing ligand from its target. For `CCOC(=O)C1=C[C@]2(CC)CCCN3CCc4c(n1c1ccccc41)[C@@H]32` [Vinpocetine, ethyl apovincaminate], the inhibition constant Ki in assay [1] (listed as vinpocetine) stood at 332 nM; in assay [1], 332 nM; in assay [4], 443 nM; in assay [6], 777 nM. For the same compound, the “binding affinity for the TSPO in humans” value in assay [2] is given as not below 100 nM. In addition, in assay [3] (phosphodiesterase inhibition, blockade of sodium and calcium channels), the “concentrations required for these effects” value is 1 to 44 µM. In addition, the “affinity for these targets (Ki)” value in assay [3] (sodium channels, calcium channels, phosphodiesterases or NF-κB) is “Ki in the uM range”. The reported binding affinity in assay [5] was 200 nM.

These data come from US20140301947A1, “METHODS TO PREDICT BINDING AFFINITY OF TSPO IMAGING AGENTS TO TSPO” (IMPERIAL INNOVATIONS LIMITED, priority 2011, published 2014).
